Like-named read-outs stand apart in the source and are kept apart here.

Experiment [1] deals with HepG2-A16-CD81EGFP cells. To be noted: for IC50: read-out: Tox_IC50, HepG2 cytotoxicity.
The test system of experiment [2] is HepG2-A16-CD81EGFP cells. The experiment is described as follows: cells. To be noted: Homo sapiens; for IC50: HepG2, read-out: Tox IC50; for inhibition at 50 µM: HepG2, read-out: Tox max inhibition (%) @ 50 uM.
Experiment [3] has as its system Plasmodium berghei (Pb-Luc) exoerythrocytic-stage parasites. The experiment is described as follows: microbe, parasite or virus in culture. To be noted: for IC50: read-out: PbLuc IC50, dose response, 1/3 dilutions, max conc. 10 or 50 uM, unit inferred.
Where [4] appears, read: sheet 2nd round, maximal inhibition in dose response.
[5] abbreviates: 2nd round, maximal inhibition in dose series.
Where [6] appears, read: HepG2, read-out: HepG2 Tox% @ 50 uM rep1.
[7] abbreviates: read-out: Inhibition% @ 50 uM rep1.
[8] abbreviates: read-out: Inhibition% @ 50 uM rep2.
Where [9] appears, read: read-out: PbLuc max inhibition (%) @ 50 uM.

Take `CO[C@@H]1CN(C)C(=O)c2ccc(NC(=O)Nc3ccccc3F)cc2OC[C@@H](C)N(Cc2ccccc2F)C[C@H]1C` [BRD-K00229958-001-01-0]: the IC50 with HepG2-A16-CD81EGFP cells [1] (sheet 2nd round) is more than 10 µM. For the same compound, the “Tox_max_inhibition (%)” value in the experiment on HepG2-A16-CD81EGFP cells [1] (setting [4]) was found to be 7%.
For `COc1ccccc1CN1C[C@@H](C)[C@H](OC)CN(C)C(=O)c2ccc(NC(=O)Nc3ccccc3OC)cc2OC[C@H]1C` [BRD-K01898236-001-01-5], in the experiment on HepG2-A16-CD81EGFP cells [1] (setting [5]), the “Tox_max_inhibition (%)” value was 9%. The IC50 in the experiment with HepG2-A16-CD81EGFP cells [1] (2nd round, unit inferred) was more than 10 µM.
Regarding `COc1ccc2c3c([nH]c2c1)[C@H](CO)N(C(C)=O)CC31CN(Cc2ccccc2Cl)C1` [BRD-K02242562-001-01-9], the IC50 in the experiment on HepG2-A16-CD81EGFP cells [1] (sheet 2nd round) is more than 10 µM. Also, the “Tox_max_inhibition (%)” value in the experiment with HepG2-A16-CD81EGFP cells [1] (setting [4]) is reported as 3.51%.
With `CCCN1C[C@H](C)[C@@H](OC)CN(C)C(=O)c2cc(NC(=O)Nc3cccc(F)c3)ccc2OC[C@H]1C` [BRD-K02315086-001-01-0], in the experiment on HepG2-A16-CD81EGFP cells [1] (sheet 2nd round), the IC50 is more than 10 µM. The “Tox_max_inhibition (%)” value with HepG2-A16-CD81EGFP cells [1] (setting [4]) turned out to be 10%.
For the compound `COc1ccc(S(=O)(=O)Nc2ccc3c(c2)C(=O)N([C@H](C)CO)C[C@@H](C)[C@H](CN(C)Cc2ccc(C(F)(F)F)cc2)OCCCC[C@@H](C)O3)cc1` [BRD-K02689416-001-01-9], the IC50 in the experiment with HepG2-A16-CD81EGFP cells [1] (sheet 2nd round) was more than 10 µM. Besides, the “Tox_max_inhibition (%)” value in the experiment on HepG2-A16-CD81EGFP cells [1] (setting [4]) amounted to 12%.
In the case of `COc1cccc(S(=O)(=O)N2CCCCN3[C@@H](CO)[C@@H](c4ccc(C#CCC(C)C)cc4)[C@@H]3C2)c1` [BRD-K03006541-001-01-3], in the experiment with HepG2-A16-CD81EGFP cells [1] (sheet "2nd round"), the IC50 was more than 10 µM and the “Tox_max_inhibition (%)” value was 5%.
Turning to `COc1cccc(-c2cccc(-c3nc(C(=O)NCc4ccc(Oc5ccccc5)cc4)cc4c3[C@@H](CCO)N([S+]([O-])C(C)(C)C)C4)c2)c1` (stereo partly drawn) [BRD-K03403405-001-03-3], the IC50 in the experiment on HepG2-A16-CD81EGFP cells [1] (sheet 2nd round) was more than 10 µM. For the same compound, the “Tox_max_inhibition (%)” value with HepG2-A16-CD81EGFP cells [1] (setting [4]) was 6%.
Consider `COc1ccc(C#Cc2ccc3c(c2)O[C@@H](CN(C)C(=O)Nc2cccc(OC)c2)[C@@H](C)CN([C@H](C)CO)S3(=O)=O)cc1` [BRD-K04089243-001-01-9], for which the IC50 in the experiment with HepG2-A16-CD81EGFP cells [1] (sheet 2nd round) is more than 10 µM. Moreover, the “Tox_max_inhibition (%)” value in the experiment with HepG2-A16-CD81EGFP cells [1] (setting [4]) is recorded as 2.28%.
The like results for `C[C@@H]1CN([C@H](C)CO)C(=O)c2c(c3ccccc3n2C)-c2ccccc2CO[C@@H]1CN(C)S(=O)(=O)c1ccc([N+](=O)[O-])cc1` [BRD-K04605557-001-01-2] were, in that order, more than 10 µM and 13%.
Take `CS(=O)(=O)N1[C@H](C#N)[C@H](c2ccc(C#Cc3cccc(F)c3)cc2)[C@H]1CO` [BRD-K05470326-001-01-0]: in the experiment on HepG2-A16-CD81EGFP cells [1] (sheet "2nd round"), the IC50 was more than 10 µM and the “Tox_max_inhibition (%)” value is 10%.
In the case of `C[C@@H]1CCCCO[C@H](CN(C)S(=O)(=O)c2ccccc2)[C@@H](C)CN([C@H](C)CO)C(=O)c2cc(NC(=O)Nc3ccc4c(c3)OCO4)ccc2O1` [BRD-K06373569-001-01-1], in the experiment on HepG2-A16-CD81EGFP cells [1] (sheet "2nd round"), the IC50 is more than 10 µM and the “Tox_max_inhibition (%)” value is given as 14%.
`COc1ccc2c3c(n(C)c2c1)[C@@H](CO)N(Cc1ccc2c(c1)OCO2)CC31CN(C(=O)c2ccc3c(c2)OCO3)C1` [BRD-K07064121-001-01-6]: in the experiment with HepG2-A16-CD81EGFP cells [1] (sheet "2nd round"), the IC50 is more than 10 µM and the “Tox_max_inhibition (%)” value is reported as 18%.
For `COc1ccc2c3c([nH]c2c1)[C@H](CO)N(C(C)=O)CC31CCN(C(=O)Nc2ccc(F)cc2F)CC1` [BRD-K07378992-001-01-6], in the experiment with HepG2-A16-CD81EGFP cells [1] (sheet "2nd round"), the IC50 was more than 10 µM and the “Tox_max_inhibition (%)” value is 7%.
Regarding `CCCNC(=O)N1[C@H](CO)[C@H](c2ccc(C#Cc3cccc(F)c3)cc2)[C@@H]1C#N` [BRD-K10089781-004-02-1], in the experiment with HepG2-A16-CD81EGFP cells [1] (sheet 2nd round), the IC50 is more than 10 µM. Further, the “Tox_max_inhibition (%)” value in the experiment on HepG2-A16-CD81EGFP cells [1] (setting [4]) was 13%.
Take `C[C@H](CO)N1C[C@H](C)[C@H](CN(C)S(=O)(=O)c2ccc(C(F)(F)F)cc2)OCc2ccccc2-c2c(n(C)c3ccccc23)C1=O` [BRD-K10380905-001-01-3]: the IC50 in the experiment with HepG2-A16-CD81EGFP cells [1] (sheet 2nd round) was more than 10 µM. The “Tox_max_inhibition (%)” value with HepG2-A16-CD81EGFP cells [1] (setting [4]) is given as 20%.
Take `C/C=C/c1ccc([C@H]2[C@@H](CO)N(C(=O)Nc3ccccc3F)[C@H]2C#N)cc1` [BRD-K12121340-001-01-2]: in the experiment with HepG2-A16-CD81EGFP cells [1] (setting [5]), the “Tox_max_inhibition (%)” value amounted to 9%. In addition, in the experiment on HepG2-A16-CD81EGFP cells [1] (2nd round, unit inferred), the IC50 is more than 10 µM.
On to `COc1ccc(C(=O)N2C[C@@H]3[C@H](c4ccccc42)[C@H](CO)N3C(=O)Cc2ccccn2)cc1` [BRD-K13582094-001-01-2], for which the IC50 in the experiment with HepG2-A16-CD81EGFP cells [1] (sheet 2nd round) was more than 10 µM. For the same compound, in the experiment with HepG2-A16-CD81EGFP cells [1] (setting [4]), the “Tox_max_inhibition (%)” value is 4%.
For the compound `CC(C)(C)[S@+]([O-])N1Cc2cc(C(=O)NCC(F)(F)F)nc(-c3cccc(-c4cccc(F)c4)c3)c2[C@@H]1CCO` [BRD-K14002526-001-01-8], in the experiment with HepG2-A16-CD81EGFP cells [1] (sheet "2nd round"), the IC50 was more than 10 µM and the “Tox_max_inhibition (%)” value is 37%.
Consider `COc1ccc(-c2ccc([C@H]3[C@@H](C#N)N(C(=O)NC(C)C)[C@H]3CO)cc2)cc1` [BRD-K15519105-001-01-9], for which, in the experiment on HepG2-A16-CD81EGFP cells [1] (sheet "2nd round"), the IC50 was more than 10 µM and the “Tox_max_inhibition (%)” value is 38%.
As for `COc1ccccc1NC(=O)N1C[C@@H]2N[C@H](C1)C2c1ccc(/C=C/c2ccccc2)cc1` (stereo partly drawn) [BRD-K16425675-019-01-0], the IC50 with HepG2-A16-CD81EGFP cells [1] (sheet 2nd round) is more than 10 µM. Further, the “Tox_max_inhibition (%)” value in the experiment with HepG2-A16-CD81EGFP cells [1] (setting [4]) came to 9%.
With `O=C(C[C@@H]1C[C@@H]2c3cc(NC(=O)c4ccc5c(c4)OCO5)ccc3O[C@@H]2[C@@H](CO)O1)NCc1ccc(Oc2ccccc2)cc1` [BRD-K16956545-001-01-0], in the experiment with HepG2-A16-CD81EGFP cells [1] (sheet "2nd round"), the IC50 is more than 10 µM and the “Tox_max_inhibition (%)” value is 5%.
With `CS(=O)(=O)N1C[C@@H]2N[C@H](C1)C2c1ccc(-c2ccccc2)cc1` (stereo partly drawn) [BRD-K16971439-019-01-0], the IC50 with HepG2-A16-CD81EGFP cells [1] (sheet 2nd round) is more than 10 µM. Moreover, in the experiment with HepG2-A16-CD81EGFP cells [1] (setting [4]), the “Tox_max_inhibition (%)” value is listed as 5%.
As to `COc1cc(C(=O)ON=C(N)Cc2cccc3ccccc23)cc(OC)c1OC` [MMV666687], in the experiment on HepG2-A16-CD81EGFP cells [2] (setting [6]), the cytotoxicity at 50 µM was 100%. The IC50 worked out at 17.1 µM in the experiment on HepG2-A16-CD81EGFP cells [2] and 12.6 µM in experiment [3]. Moreover, the inhibition (commonly the change of the read-out against control, counted positive when it falls) at 50 µM with HepG2-A16-CD81EGFP cells [2] amounted to 100%; in experiment [3] (setting [7]), 102%; in experiment [3] (setting [8]), 103%; in experiment [3] (setting [9]) it was 100%.
With `Cc1cc(C=C2SC(=Nc3ccccc3)N(C3CCCC3)C2=O)c(C)n1-c1ccc(Cl)cc1` [MMV666688], the cytotoxicity at 50 µM in the experiment on HepG2-A16-CD81EGFP cells [2] (setting [6]) is -4.47%; in the experiment with HepG2-A16-CD81EGFP cells [2] (HepG2, read-out: HepG2 Tox% @ 50 uM rep2), -11%. The inhibition at 50 µM in experiment [3] (setting [7]) was determined as 14%; in experiment [3] (setting [8]), 0.839%.
On to `COc1ccc(Nc2nc(NN=Cc3ccc(O)cc3)nc(Nc3ccc([N+](=O)[O-])cc3)n2)cc1` [MMV666689], for which the cytotoxicity at 50 µM in the experiment on HepG2-A16-CD81EGFP cells [2] (setting [6]) was 97%. Also, the IC50 was determined as 46.8 µM in the experiment on HepG2-A16-CD81EGFP cells [2] and 15.9 µM in experiment [3]. The inhibition at 50 µM turned out to be 73% in the experiment with HepG2-A16-CD81EGFP cells [2], 98% in experiment [3] (setting [7]), 98% in experiment [3] (setting [8]) and 95% in experiment [3] (setting [9]).
`COc1ccc(CCn2c(=N)c(C(=O)NCc3cccnc3)cc3c(=O)n4cccc(C)c4nc32)cc1` [MMV667488]: the cytotoxicity at 50 µM in the experiment on HepG2-A16-CD81EGFP cells [2] (setting [6]) is -0.0644%. Further, the inhibition at 50 µM in experiment [3] (setting [7]) amounted to 81%; in experiment [3] (setting [8]), 83%.
In the same order, the values of `COc1ccc(C2c3ccc4ccccc4c3Oc3ncn(CCCn4ccnc4)c(=N)c32)cc1OC` (stereo not drawn) [MMV667490] are 102%, 104% and 104%.
Regarding `COc1ccc(C2c3ccc4ccccc4c3Oc3ncn(CCCN(C)C)c(=N)c32)cc1` (stereo not drawn) [MMV667491], the cytotoxicity at 50 µM in the experiment with HepG2-A16-CD81EGFP cells [2] (setting [6]) was 99%. In addition, the IC50 amounted to 10.7 µM with HepG2-A16-CD81EGFP cells [2] and 4 µM in experiment [3]. Also, the inhibition at 50 µM with HepG2-A16-CD81EGFP cells [2] was 93%; in experiment [3] (setting [7]) it was 103%; in experiment [3] (setting [8]) it was 103%; in experiment [3] (setting [9]), 94%.
For `CN(N=O)C1=C(NC2CCCCC2)C(=O)c2ccccc2C1=O` [MMV667492], the cytotoxicity at 50 µM in the experiment with HepG2-A16-CD81EGFP cells [2] (setting [6]) was 98%. In addition, the figures for the inhibition at 50 µM in experiment [3] (setting [7]) and in experiment [3] (setting [8]) were 103% and 104%, respectively.

For the origin of these results see PMC4890880 (ACS infectious diseases, 2016).
